Experimental findings from patent USRE30451E, “Novel process for producing antibiotics bleomycin” (priority 1969, dated 1980) are described below.

Series [1] deals with Ehrlich ascites carcinoma cells. The conditions noted are these: for ED50: maximum dose level at which mice survive 100 to 200 percent of control survival days, intraperitoneally once a day for 10 days, doses 25 mg/kg to 0.19 mg/kg; for anti-tumor effect (in words): mouse, in vivo.
Series [2] shares this test system. In words: Life-prolongation effect and toxicity in mice inoculated with ascites type Ehrlich carcinoma. The conditions noted are these: mouse, in vivo.
The conditions of series [3]: tumour-inoculated ICR/JCL mice, intraperitoneally once a day for 10 days, doses 25 mg/kg to 0.19 mg/kg, Behres-Karber's method, observed up to 50 days.

As to `Cc1c(N)nc(C(CC(N)=O)NCC(N)C(N)=O)nc1C(=O)NC(C(=O)NC(C)C(O)C(C)C(=O)NC(C(=O)NCCc1nc(-c2nc(C(=O)NCCCNC(C)c3ccccc3)cs2)cs1)C(C)O)C(OC1OC(CO)C(O)C(O)C1OC1OC(CO)C(O)C(OC(N)=O)C1O)c1cnc[nH]1` (stereo not shown) [Compound 35, 3-(1-phenylethyl)-aminopropyl-amino-bleomycin], in series [1], the ED50 is reported as 0.19 and the “anti-tumor effect (in words)” value is “excellent in effect”. Besides, in series [2], the “toxicity (in words)” value was “less toxicity”.
`Cc1c(N)nc(C(CC(N)=O)NCC(N)C(N)=O)nc1C(=O)NC(C(=O)NC(C)C(O)C(C)C(=O)NC(C(=O)NCCc1nc(-c2nc(C(=O)NCCCNCCCN(C)C)cs2)cs1)C(C)O)C(OC1OC(CO)C(O)C(O)C1OC1OC(CO)C(O)C(OC(N)=O)C1O)c1cnc[nH]1` (stereo not shown) [Compound 21] showed an ED50 in series [1] of 0.19. The same compound showed an LD50 in series [3] of 10.3.
With `Cc1c(N)nc([C@H](CC(N)=O)NC[C@H](N)C(N)=O)nc1C(=O)N[C@H](C(=O)N[C@H](C)[C@@H](O)[C@H](C)C(=O)N[C@H](C(=O)NCCc1nc(-c2nc(C(=O)NCCCCN=C(N)N)cs2)cs1)[C@@H](C)O)[C@@H](O[C@@H]1O[C@@H](CO)[C@@H](O)[C@H](O)[C@@H]1O[C@H]1O[C@H](CO)[C@@H](O)[C@H](OC(N)=O)[C@@H]1O)c1cnc[nH]1` [Compound 3, Bleomycin B2, reference compound], the ED50 in series [1] is 0.78. Further, in series [3], the LD50 was found to be 7.5.
Consider `Cc1c(N)nc([C@H](CC(N)=O)NC[C@H](N)C(N)=O)nc1C(=O)N[C@H](C(=O)N[C@H](C)[C@@H](O)[C@H](C)C(=O)N[C@H](C(=O)NCCc1nc(-c2nc(C(=O)NCCCNCCCCN)cs2)cs1)[C@@H](C)O)[C@@H](O[C@@H]1O[C@@H](CO)[C@@H](O)[C@H](O)[C@@H]1O[C@@H]1O[C@H](CO)[C@@H](O)[C@H](OC(N)=O)[C@@H]1O)c1cnc[nH]1` [Compound 7, Bleomycin A5, reference compound], for which, in series [1], the ED50 is 0.19 and the “anti-tumor effect (in words)” value was “strong in anti-tumor property”. In series [3], the LD50 stood at 15.6. In series [2], the “toxicity (in words)” value is on record as “less in toxicity”.
In series [1], `COCCCNCCCNC(=O)c1csc(-c2csc(CCNC(=O)C(NC(=O)C(C)C(O)C(C)NC(=O)C(NC(=O)c3nc(C(CC(N)=O)NCC(N)C(N)=O)nc(N)c3C)C(OC3OC(CO)C(O)C(O)C3OC3OC(CO)C(O)C(OC(N)=O)C3O)c3cnc[nH]3)C(C)O)n2)n1` (stereo not shown) [Compound 33, 3-(3-methoxypropyl)-aminopropylaminobleomycin] had an ED50 of 0.19. In series [3], this compound registered an LD50 of 7.5.
